Earlier results in US8563582B2, “3-aminocyclopentanecarboxamides as modulators of chemokine receptors” (priority 2004, dated 2013).

Experiments:
HIV-1 [1] = conditions: U-87 astroglioma cells
HIV-1 [2] = test system: HIV-1
rhesus macaque CCR5 = rhesus macaque CCR5 (Macaca mulatta, UniProt P61813)
human CCR5 = human CCR5 (Homo sapiens, UniProt P51681)
Chain of human CCR5 (P51681 whole entry): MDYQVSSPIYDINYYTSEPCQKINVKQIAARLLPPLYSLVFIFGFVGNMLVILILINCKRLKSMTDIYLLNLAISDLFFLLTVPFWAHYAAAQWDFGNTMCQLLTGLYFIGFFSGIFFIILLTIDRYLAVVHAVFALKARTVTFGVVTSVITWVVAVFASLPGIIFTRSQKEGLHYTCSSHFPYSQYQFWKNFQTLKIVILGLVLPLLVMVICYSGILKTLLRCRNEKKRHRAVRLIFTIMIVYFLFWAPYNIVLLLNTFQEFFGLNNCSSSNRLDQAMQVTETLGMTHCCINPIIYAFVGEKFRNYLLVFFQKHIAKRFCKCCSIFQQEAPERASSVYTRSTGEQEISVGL

Compound	anti-HIV activity (HIV)	inhibition of HIV-1 infection mediated by CCR5 (HIV-1 [1])	effect on infection of CXCR4-expressing cells (HIV-1 [2])	inhibition of HIV-1 entry via rhesus macaque CCR5 (rhesus macaque CCR5)	inhibition of entry of HIV-1 via human CCR5 (human CCR5)
Cc1ccc(-c2ccc3c(c2)C=C(C(=O)Nc2ccc(C[N+](C)(C)C4CCOCC4)cc2)CCC3)cc1.[Cl-] [TAK-779]	potent but variable	–	–	–	–
CCO/N=C(\c1ccc(Br)cc1)C1CCN(C2(C)CCN(C(=O)c3c(C)cc[n+]([O-])c3C)CC2)CC1 [SCH-C]	–	specifically inhibits	no effect	does not	–
Cc1ncnc(C)c1C(=O)N1CCC(C)(N2CCN([C@@H](C)c3ccc(C(F)(F)F)cc3)[C@@H](C)C2)CC1 [AD101]	–	–	–	inhibits	inhibits
